# Like-named read-outs stand apart in the source and are kept apart here.
# How the values were obtained:
# METTL3/14 [1] = target: T1, METTL3/14 (Homo sapiens (Human), UniProt Q86U44); assay: biochemical
# KASUMI-1 cells = assay: Kasumi cell assay (CellTiter-Glo cell growth); format: cell-based; details: Homo sapiens
# Description: Upon treatment, Kasumil cells were incubated for 10 min at RT with the CellTiter-Glo reagent (G7571, Promega). Measurement of the luminescence signal was performed on a microplate reader (Ensight, PerkinElmer).
# METTL3/14 [2] = target: T1, METTL3/14
# Caov-3 cells = assay: Caov3 CTG proliferation assay; format: cell-based; details: Homo sapiens
# Description: CTG Assay (Caov3 Cell Line)
# Upon treatment, Coav-3 cells were incubated for 10 min at RT with the CellTiter-Glo reagent (G7571, Promega). Measurement of the luminescence signal was performed on a microplate reader (Ensight, PerkinElmer).
# Caov3 CTG Assay—Proliferation Assay
# [3] = Kasumi 1, treated for 120 hours, CellTiter-Glo luminescence, read-out: KASUMI1 cells IC50
# [4] = Caov-3, treated for 120 hours, CellTiter-Glo luminescence, read-out: Caov3 cells IC50
# T1 sequence (Q86U44 whole entry): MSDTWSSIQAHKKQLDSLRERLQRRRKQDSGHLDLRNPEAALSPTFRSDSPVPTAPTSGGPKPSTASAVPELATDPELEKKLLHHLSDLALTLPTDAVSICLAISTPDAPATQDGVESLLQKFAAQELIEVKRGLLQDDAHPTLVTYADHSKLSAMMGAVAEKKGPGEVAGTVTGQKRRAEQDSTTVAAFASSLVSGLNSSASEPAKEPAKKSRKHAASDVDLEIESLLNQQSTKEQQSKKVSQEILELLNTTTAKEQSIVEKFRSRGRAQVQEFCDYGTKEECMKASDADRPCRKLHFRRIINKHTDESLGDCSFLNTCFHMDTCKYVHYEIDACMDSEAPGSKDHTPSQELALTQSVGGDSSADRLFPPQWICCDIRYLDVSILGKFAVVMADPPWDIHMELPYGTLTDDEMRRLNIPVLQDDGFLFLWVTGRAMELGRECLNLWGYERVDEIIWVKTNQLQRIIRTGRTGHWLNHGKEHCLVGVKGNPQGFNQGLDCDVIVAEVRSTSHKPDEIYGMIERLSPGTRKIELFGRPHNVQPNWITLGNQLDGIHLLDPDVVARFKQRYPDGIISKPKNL
# T1 sequence (Q9HCE5 whole entry partner): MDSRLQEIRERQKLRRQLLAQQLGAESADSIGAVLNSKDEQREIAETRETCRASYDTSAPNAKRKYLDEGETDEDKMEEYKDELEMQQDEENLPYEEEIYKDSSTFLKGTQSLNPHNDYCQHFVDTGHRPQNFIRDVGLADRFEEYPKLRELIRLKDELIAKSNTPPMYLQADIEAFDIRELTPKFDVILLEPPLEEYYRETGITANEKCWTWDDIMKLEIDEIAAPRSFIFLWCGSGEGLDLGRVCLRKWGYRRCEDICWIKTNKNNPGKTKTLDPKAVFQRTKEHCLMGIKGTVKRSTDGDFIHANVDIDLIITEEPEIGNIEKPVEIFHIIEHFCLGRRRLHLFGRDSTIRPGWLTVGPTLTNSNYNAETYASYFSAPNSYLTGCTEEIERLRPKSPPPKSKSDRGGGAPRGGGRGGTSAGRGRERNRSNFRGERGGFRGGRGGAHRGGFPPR
Compound,IC50 (METTL3/14 [1]) [nM],IC50 (KASUMI-1 cells; [3]) [nM],IC50 (METTL3/14 [2]) [nM],IC50 (Caov-3 cells; [4]) [nM],"IC50 (KASUMI-1 cells; Kasumi 1, 120 h, read-out: KASUMI1 cells IC50 nM) [nM]","IC50 (Caov-3 cells; Caov-3, 120 h, read-out: Caov3 cells IC50 nM) [nM]"
"c1cc(-n2cc(Cc3ccc4cc(CNCC5CCC5)[nH]c4c3)nn2)c2cncn2c1 [Example 144, (cyclobutyl-methyl)({6-[(1-{imidazo[1,5-a]pyridin-8-yl}-1H-1,2,3-triazol-4-yl)methyl]-1H-indol-2-yl}methyl) amine]",19.3,–,–,–,–,–
"O=C(NCc1cc2[nH]c(CNCC3CCC3)cc2cc1F)c1cc(=O)n2ccccc2n1 [Compound 41, N-[[2-[(cyclobutylmethylamino)methyl]-5-fluoro-1H-indol-6-yl]methyl]-4-oxo-pyrido[1,2-a]pyrimidine-2-carboxamide]",–,309,6.1,192,–,–
"O=C(NCc1ccc2cc(CNCC3CC34CC4)[nH]c2c1)c1cc(=O)n2ccccc2n1 (stereo not shown) [Compound 109, 4-oxo-N-[(2-{[({spiro[2.2]pentan-1-yl}methyl)amino]methyl}-1H-indol-6-yl)methyl]-4H-pyrido[1,2-a]pyrimidine-2-carboxamide]",–,1470,6.1,608,–,–
"O=C(NCc1ccc2cc(CN3CC(C4CCC4)C3)[nH]c2c1)c1cc(=O)n2ccccc2n1 [Compound 95, N-({2-[(3-cyclobutylazetidin-1-yl)methyl]-1H-indol-6-yl}methyl)-4-oxo-4H-pyrido[1,2-a]pyrimidine-2-carboxamide]",–,3190,6.1,960,–,–
"O=C(NCc1ccc2cc(CN3CC4CCCC4C3)[nH]c2c1)c1cc(=O)n2ccccc2n1 (stereo not shown) [Compound 106, N-{[2-({octahydrocyclopenta[c]pyrrol-2-yl}methyl)-1H-indol-6-yl]methyl}-4-oxo-4H-pyrido[1,2-a]pyrimidine-2-carboxamide]",–,1830,6.1,911,–,–
"CC1(C)CCN(Cc2cc3ccc(CNC(=O)c4cc(=O)n5ccccc5n4)cc3[nH]2)C1 [Compound 92, N-({2-[(3,3-dimethylpyrrolidin-1-yl)methyl]-1H-indol-6-yl}methyl)-4-oxo-4H-pyrido[1,2-a]pyrimidine-2-carboxamide]",–,1610,6.1,598,–,–
"O=C(NCc1cc2[nH]c(CNCC34CC(F)(C3)C4)cc2cn1)c1cc(=O)n2ccccc2n1 [Compound 132, N-[(2-{[({3-fluorobicyclo[1.1.1]pentan-1-yl}methyl)amino]methyl}-1H-pyrrolo[3,2-c]pyridin-6-yl)methyl]-4-oxo-4H-pyrido[1,2-a]pyrimidine-2-carboxamide]",–,785,6.1,268,–,–
"O=C(NCc1ccc2cc(CNCC34CC(F)(C3)C4)[nH]c2c1)c1cc(=O)n2ccccc2n1 [Compound 23, N-[(2-{[({3-fluorobicyclo[1.1.1]pentan-1-yl}methyl)amino]methyl}-1H-indol-6-yl)methyl]-4-oxo-4H-pyrido[1,2-a]pyrimidine-2-carboxamide]",–,263,6.1,80.1,–,–
"CC12CC(CNCc3cc4ccc(CNC(=O)c5cc(=O)n6ccccc6n5)cc4[nH]3)(C1)C2 [Compound 77, N-[(2-{[({3-methylbicyclo[1.1.1]pentan-1-yl}methyl)amino]methyl}-1H-indol-6-yl)methyl]-4-oxo-4H-pyrido[1,2-a]pyrimidine-2-carboxamide]",–,1760,6.1,701,–,–
"O=C(NCc1ccc2cc(CNCC34CCC(C3)C4)[nH]c2c1)c1cc(=O)n2ccccc2n1 [Compound 76, N-[(2-{[({bicyclo[2.1.1]hexan-1-yl}methyl)amino]methyl}-1H-indol-6-yl)methyl]-4-oxo-4H-pyrido[1,2-a]pyrimidine-2-carboxamide]",–,698,6.1,242,–,–
"O=C(NCc1ccc2cc(CN[C@H]3CCC[C@H]3O)[nH]c2c1)c1cc(=O)n2ccccc2n1 [Compound 38, N-{[2-({[(1S,2R)-2-hydroxycyclopentyl]amino}methyl)-1H-indol-6-yl]methyl}-4-oxo-4H-pyrido[1,2-a]pyrimidine-2-carboxamide]",–,–,6.1,–,2310,458
"O=C(NCc1ccc2c(F)c(CNCC3CCC3)[nH]c2c1)c1cc(=O)n2ccccc2n1 [Example 45, N-[(2-{[(cyclobutylmethyl)amino]methyl}-3-fluoro-1H-indol-6-yl)methyl]-4-oxo-4H-pyrido[1,2-a]pyrimidine-2-carboxamide]",–,764,6.1,574,–,–
"O=C(NCc1cnc2cc(CNCC34CC(C3)C4)[nH]c2c1)c1cc(=O)n2ccccc2n1 [Example 126, N-[(2-{[({bicyclo[1.1.1]pentan-1-yl}methyl)amino]methyl}-1H-pyrrolo[3,2-b]pyridin-6-yl)methyl]-4-oxo-4H-pyrido[1,2-a]pyrimidine-2-carboxamide]",–,3070,6.1,523,–,–
"CC(NCc1cc2ccc(CNC(=O)c3cc(=O)n4ccccc4n3)cc2[nH]1)C12CC(F)(C1)C2 (stereo not shown) [Compound 120, N-[(2-{[(1-{3-fluorobicyclo[1.1.1]pentan-1-yl}ethyl)amino]methyl}-1H-indol-6-yl)methyl]-4-oxo-4H-pyrido[1,2-a]pyrimidine-2-carboxamide]",–,447,6.1,203,–,–
"O=C(NCc1cc2[nH]c(CNCC34CC(C3)C4)cc2cn1)c1cc(=O)n2ccccc2n1 [Compound 131, N-[(2-{[({bicyclo[1.1.1]pentan-1-yl}methyl)amino]methyl}-1H-pyrrolo[3,2-c]pyridin-6-yl)methyl]-4-oxo-4H-pyrido[1,2-a]pyrimidine-2-carboxamide]",–,1140,6.1,237,–,–
"O=C(NCc1cc2[nH]c(CN3CCC4(CCC4)C3)cc2cn1)c1cc(=O)n2ccccc2n1 [Compound 145, N-((2-((6-azaspiro[3.4]octan-6-yl)methyl)-1H-pyrrolo[3,2-c]pyridin-6-yl)methyl)-4-oxo-4H-pyrido[1,2-a]pyrimidine-2-carboxamide]",–,717,< 6.1,201,–,–
